Consider 5 molecules from article PMC5356311, “Experimental recreation of the evolution of lignin-degrading enzymes from the Jurassic to date” (Biotechnology for Biofuels, 2017).

The subject of one data set is CaPo-bis. Particulars: saturating H2O2, 0.1 M tartrate, 25 °C; low efficiency site (heme channel).
The next data set deals with CaPo-tris. Particulars: saturating H2O2, 0.1 M tartrate, 25 °C; low efficiency site (heme channel).
The test system of data set [1] is CaCD. Particulars: read-out: CaCD; 0.4 mM H2O2, 0.1 M tartrate, pH 3.5, 25 °C; low efficiency site (heme channel).
In data set [2] the test system is ALiP. Particulars: read-out: ALiP; 0.2 mM H2O2, 0.1 M tartrate, pH 3.5, 25 °C; high efficiency site (exposed Trp).
The subject of data set [3] is AVP. In words: steady-state kinetics, spectrophotometric ([…] nm). In kind it is biochemical, ancestral sequence (Polyporales, reconstructed). Particulars: 0.4 mM H2O2, 0.1 M tartrate, pH 3.5, 25 °C; biphasic kinetics, high efficiency site (exposed Trp).
Data set [4] deals with CaCD. Kind of data set: steady-state kinetics, spectrophotometric ([…] nm). In kind it is biochemical, ancestral sequence (Polyporales, reconstructed). Particulars: 0.4 mM H2O2, 0.1 M tartrate, pH 3.0, 25 °C; low efficiency site (heme channel).
The next data set relates to CaPo. In words: steady-state kinetics, spectrophotometric ([…] nm). Format: biochemical, ancestral sequence (Polyporales, reconstructed). Particulars: 0.4 mM H2O2, 0.1 M tartrate, pH 2, 25 °C; low efficiency site (heme channel).
The subject of data set [5] is ALiP. In words: steady-state kinetics, spectrophotometric ([…] nm). Particulars: 0.2 mM H2O2, 0.1 M tartrate, pH 3.0, 25 °C; high efficiency site (exposed Trp). In kind it is biochemical, ancestral sequence (Polyporales, reconstructed).
Data set [6] concerns AVP. Kind of data set: steady-state kinetics, spectrophotometric ([…] nm). The settings on record: 0.4 mM H2O2, 0.1 M tartrate, pH 3.0, 25 °C; biphasic kinetics, high efficiency site (exposed Trp). In kind it is biochemical, ancestral sequence (Polyporales, reconstructed).
Data set [7] has as its system ALiP. In words: steady-state kinetics, spectrophotometric ([…] nm). The settings on record: 0.2 mM H2O2, 0.1 M tartrate, pH 3, 25 °C; exposed Trp site. Format: biochemical, ancestral sequence (Polyporales, reconstructed).
The test system of data set [8] is AVP. In words: steady-state kinetics, spectrophotometric ([…] nm). Format: biochemical, ancestral sequence (Polyporales, reconstructed). The settings on record: 0.4 mM H2O2, 0.1 M tartrate, pH 3, 25 °C; exposed Trp site.
Data set [9] deals with ALiP. Kind of data set: steady-state kinetics, spectrophotometric ([…] nm). The settings on record: 0.2 mM H2O2, 0.1 M tartrate, pH 3.0, 25 °C; exposed Trp site. In kind it is biochemical, ancestral sequence (Polyporales, reconstructed).
Data set [10] has as its system AVP. In words: steady-state kinetics, spectrophotometric ([…] nm). Format: biochemical, ancestral sequence (Polyporales, reconstructed). Particulars: 0.4 mM H2O2, 0.1 M tartrate, pH 3.5, 25 °C; exposed Trp site.
Substrate in data set [11]: COc1ccc(CO)cc1OC
Kind of data set: purified protein. Format: biochemical, Phanerodontia chrysosporium. The settings on record: 0.1 mM H2O2, 0.1 M tartrate, pH 3.0, 25 °C, exposed Trp site.

Substrate in data set [12]: COc1cccc(OC)c1O
In words: purified protein. In kind it is biochemical, Phanerodontia chrysosporium. Particulars: 0.1 mM H2O2, 0.1 M tartrate, pH 3.0, 25 °C, high efficiency site (exposed Trp).

Substrate in data set [13]: CCn1c(=NN=c2sc3cc(S(=O)(=O)O)ccc3n2CC)sc2cc(S(=O)(=O)O)ccc21
Kind of data set: purified protein. In kind it is biochemical, Phanerodontia chrysosporium. The settings on record: 0.1 mM H2O2, 0.1 M tartrate, pH 3.5, 25 °C, high efficiency site (exposed Trp).

Read-outs that look alike come from different tables or passages of the source.

As for `CCn1c(=NN=c2sc3cc(S(=O)(=O)O)ccc3n2CC)sc2cc(S(=O)(=O)O)ccc21` [ABTS], the Km with CaPo-bis is 1.39 ± 0.345 mM; in the data set on CaPo-tris, 807 ± 104 µM; in the data set with CaCD [1], 1.28 ± 0.35 mM; with ALiP [2], 13.7 ± 3.5 µM; in the data set with AVP [3], 5.4 ± 0.7 µM.

`COc1cccc(OC)c1O` [DMP]: the Km in the data set on CaCD [4] was 66.8 mM; in the data set with CaPo, 32.9 mM; in the data set with ALiP [5], 34 ± 5.4 µM; in the data set with AVP [6], 5.3 ± 1.1 µM.

As for `Nc1c(N=Nc2ccc(S(=O)(=O)CCOS(=O)(=O)O)cc2)c(S(=O)(=O)O)cc2cc(S(=O)(=O)O)c(N=Nc3ccc(S(=O)(=O)CCOS(=O)(=O)O)cc3)c(O)c12` [RB5], the Km amounted to 12.6 ± 3.6 µM with ALiP [7] and 4.8 ± 0.8 µM with AVP [8].

Turning to `COc1ccc(CO)cc1OC` [VA], the Km amounted to 773 ± 155 µM in the data set with ALiP [9] and 299 ± 104 µM in the data set with AVP [10].

B1: LiPH8 (Phanerodontia chrysosporium) (protein)
chain: ATCSNGKTVGDASCCAWFDVLDDIQQNLFHGGQCGAEAHESIRLVFHDSIAISPAMEAQGKFGGGGADGSIMIFDDIETAFHPNIGLDEIVKLQKPFVQKHGVTPGDFIAFAGRVALSNCPGAPQMNFFTGRAPATQPAPDGLVPEPFHTVDQIINRVNDAGEFDELELVWMLSAHSVAAVNDVDPTVQGLPFDSTPGIFDSQFFVETQLRGTAFPGSGGNQGEVESPLPGEIRIQSDHTIARDSRTACEWQSFVNNQSKLVDDFQFIFLALTQLGQDPNAMTDCSDVIPQSKPIPGNLPFSFFPAGKTIKDVEQACAETPFPTLTTLPGPETSVQRIPPPPGA
For orientation: kcat means the maximal rate divided by the concentration of active sites. In general, kcat/Km refers to the second-order rate constant that governs catalysis at low substrate concentration. Turning to B1, in “purified protein [11]”, the Km is 79.3 ± 18 µM, the kcat came out at 16.2 ± 0.8 s⁻¹ and the kcat/Km was 205 ± 4 s⁻¹ mM⁻¹. For the same molecule, in the data set “purified protein [12]”, the Km turned out to be 4.0 ± 0.07 µM. For the same molecule, in “purified protein [13]”, the Km was found to be 21.3 ± 2.3 µM, the kcat turned out to be 6.5 ± 0.2 s⁻¹ and the kcat/Km came out at 300 ± 25 s⁻¹ mM⁻¹.
